# Results: US20210145830A1, “MATERIALS AND METHODS FOR TREATING CANCER” (Mayo Foundation for Medical Education and Research, priority 2018, published 2021)
# Entries after “also recorded” stand apart in the source; their conditions may differ.
# How the values were obtained:
# Format in all cases: cell-based
# CART19 = CART19 proliferation assay in the presence of TP0903; conditions: 5 days
# Protocol: FIG. 2 contains an exemplary timeline for a CART19 proliferation assay in the presence of TP0903. UTDs or CART19 were incubated with Jeko in the presence of TP0903 in 1:1 ratio. At day 5, total T cell numbers were evaluated with CountBright quantification.
# T cells were washed and re-suspended at 1×10^7/mL in 100 μL of phosphate-buffered saline and labeled with 100 μL of carboxyfluorescein succinimidyl ester (CFSE) 2.5 μM (Life Technologies) for 5 minutes at 37° C. The reaction was then quenched with cold R10, and the cells were washed three times. Targets were irradiated at a dose of 100 Gy. T cells were incubated at a 1:1 ratio with irradiated target cells for 120 hours. Cells were then harvested, stained for CD3, CAR and Live Dead aqua (Invitrogen), and Countbright beads (Invitrogen) were added prior to flow cytometric analysis.
# UTDs or CART19 were incubated with Jeko cell line or primary CLL cells in the presence of TP0903, at 1:1 ratio for 5 days. At the end of the experiment, cells were harvested and stained for CD3, live dead staining was performed, and counti bright beads were added prior to flow cytometric analyses (FIG. 2). Absolute T cell numbers were calculated based on this. […] Low doses of TP0903 (10 nM) increased the number of CART19 cells. A high dose of TP0903 (>100 nM) decreased the number of CART19.
# Naïve T cells = assay: Inhibitory receptor expression in stimulated naïve T cells; conditions: PMA/Ionomycin
# Protocol: FIGS. 19A-F. A. Inhibitory receptors expression in naïve T cells after TCR activation with CD3 stimulation in the increasing dose of TP0903. Naïve T cells were incubated with anti CD3/CD28 beads at a 1 to 3 ratio in the presence of TP0903. At day 3, T cells were stained with PD-1, TIM-3, LAG-3, and ICOS. […] Teff cells were isolated by negative selection using Human T Cell Isolation Kit. Tregs were isolated by negative selection using the human CD4^+CD127^lowCD25^+ Treg isolation kit. Teff and Treg were stimulated with anti CD3/CD28 beads and 400 U/ml of IL-2. At day 5, total T cells were evaluated via CountBright quantification. C. CART19 cytokine assay in the presence TP0903. UTDs or CART19 were incubated with Jeko in the presence of TP-0903 at a 1 to 1 ratio. Supernatant was harvested and analyzed by 32-plex Luminex array after 3 days. D. Inhibitory receptors expression in CART19 cells in the presence TP0903. UTDs or CART19 were incubated with Jeko at a 1 to 1 E/T ratio in the presence of TP0903. At day 5, T cells were stained with PD-1 (left), LAG-3 (right), and TIM-3. […] Cell killing was assessed by luminescence at 24 hours. […]
# FIG. 21A-E. TP0903 modulates naïve T cells function upon stimulation of PMA/Ionomycin in vitro. […] At day 5, total T cells were evaluated via CountBright quantification.
# [1] = tested on: p-LCK and GATA-3 in naïve T cells; assay: Western blot of p-LCK and GATA-3 in naïve T cells
# Protocol: FIG. 21A-E. TP0903 modulates naïve T cells function upon stimulation of PMA/Ionomycin in vitro. A. Naïve T cell proliferation assay in the presence of TP0903. Naïve T cells were stimulated with 5 ng/ml of PMA and 0.1 μg/ml of Ionomycin in the absence or in the increasing dose of TP0903 (10-65 nM) for 3 days. […] B. At the end of the expansion on day 3, T cells were stained with inhibitory receptors. […] C. Naïve T cell degranulation assay and cytokine production in the presence of TP0903. Naïve T cells were stimulated with 50 ng/ml of PMA and 1 μg/ml of Ionomycin for 4 hours in the presence of increasing doses of TP0903 (10-65 nM). […] D. Western blot analysis of p-LCK and GATA-3 inhibition by TP0903 in naïve T cells. Naïve T cells were stimulated with 5 ng/ml of PMA and 0.1 ug/ml of Ionomycin in the absence (DMSO) or in the increasing dose of TP0903 (10-65 nM) for 24 hours. […] was used as loading control. E. TP0903 specifically reduces regulatory T cells (Treg). Effector T cells (Teff) were isolated by negative selection using RoboSep™ Human T Cell Isolation Kit (Stemcell Technologies). Tregs were isolated by negative selection using the human CD4^+CD127^lowCD25^+ Treg isolation kit (Stemcell Technologies). Teff and Treg were stimulated with anti-CD3/CD28 beads and 400 U/ml of IL-2. At day 5, total T cells were evaluated via CountBright quantification.
# [2] = PMA/Ionomycin, 24 hours, highest dose (65 nM)
smiles,measurement,setting,value
CN1CCN(Cc2ccc(Nc3ncc(Cl)c(Nc4ccccc4S(=O)(=O)N(C)C)n3)cc2)CC1 [TP0903],CART cell specific proliferation,CART19; 1:1 with Jeko or primary CLL cells,did not impair; also recorded: does not inhibit
same,number of CART19 cells,CART19; high dose of TP0903 (>100 nM),decreased
same,number of CART19 cells,CART19; low doses of TP0903 (10 nM),increased
same,"inhibitory receptors (PD-1, LAG-3, TIM-3, and ICOS)","Naïve T cells; day 3, high dose TP0903",significantly downregulated
same,inhibitory receptors,Naïve T cells; low dose TP0903,significant reduction
same,GATA-3,[1]; [2],modest inhibition
same,phosphorylation of LCK,[1]; [2],modest inhibition
same,LCK,"[1]; T cell lysates, low dose TP0903",inhibition
